How the values were obtained:
[1] = tested on: HMC3 (human microglia) cell line; assay: pHrodo-myelin phagocytosis/cell viability high content imaging assay: phagocytosis signal; type: cell-based
Method: (§1) It is important to note that stressed cells, such as those that are dying, are prone to show an increase in phagocytosis. […] MerTK promotes phagocytosis and thus MerTK inhibition is proposed to lead to inhibition of phagocytosis.[47]
(§2) phagocytosis and cell viability simultaneously. High content imaging is performed with the
(§3) (approximately 22 hours after pHrodo-myelin addition). Three measurements are extracted
(§4) intensity increase (early apoptosis) and decrease (later apoptosis), respectively. These
and 3). […]

[2] = tested on: BV2 (mouse microglia) cell line; assay: as above; type: cell-based
Method: as §1, §2, §3, §4
and 3). […]

[3] = tested on: HMC3 (human microglia) cell line; assay: pHrodo-myelin phagocytosis/cell viability high content imaging assay: viability (cell count, nuclear area, nuclear intensity); conditions: for 1. Cell count (% control) / 2. Nuclear Area (% Control) / 3. Nuclear DNA Intensity (% control): 48 hours treatment
Method: (§5) All AD Informer Set compounds were tested in two immortalized microglial cell lines, murine (BV2), and human (HMC3), in a high‐content imaging assay in duplicate by the Chu lab. Experimental details and all data can be found as supporting information files.
(§6) The role of microglia in AD has been well documented and was thus chosen as a cell type in which to profile the AD Informer Set.[43], [44], [45] As an example, neuroinflammation, as detected by the presence of activated complement proteins, interleukins, cytokines, and chemokines in microglia and astrocytes, is increased early in AD and is considered pathogenic due to its chronic nature.[33], [34] Cytotoxic effects can be assessed by considering multiple parameters.
(§7) Microglial viability and phagocytosis studies: The pHrodo-myelin phagocytosis/cell viability assay, modified based on a published method, was run with immortalized BV2 (mouse microglia) and HMC3 (human microglia) cell lines in the Chu lab at IUSM. The 384-well plate high content analysis assay with BV2 and HMC3 microglial cell lines is used to quantify both phagocytosis and cell viability simultaneously. High content imaging is performed with the ArrayScan automatic imaging system and imaging analysis done with the software on the system. After allowing cells to adhere overnight, they are treated with compounds for total 48 hours including final 20 hours seeded with pHrodo-myelin (labeled phagocytosis ligand, purified […]
(§8) (approximately 22 hours after pHrodo-myelin addition). Three measurements are extracted from the assay: 1) phagocytosis signal by mean total phagocytosis spot intensity per cell, 2) total cell counts per well as the main measurement of cell viability, and 3) mean average nuclear intensity per cell as profiling of cell health since apoptotic cells showing nuclear intensity increase (early apoptosis) and decrease (later apoptosis), respectively. These measurements allow for evaluation of compound-induced phagocytosis (1) and cytotoxicity (2 and 3). Assays were carried out at a single concentration (10 μM). Idelalisib (10 μM) and cytochalasin-D (4 μM) were used as positive controls in the assay. All data, which was an average of 2 data points, was normalized to untreated wells and reported as % control, which is included in the Supporting Information both as a raw data file and summarized in the compound/gene-annotation file.

[4] = tested on: BV2 (mouse microglia) cell line; assay: as above; conditions: 48 hours treatment
Method: as §5, §6, §7, §8

[5] = HMC3 cells, 10 uM compound, 48 hours treatment, pHrodo-myelin final 20 hours
[6] = BV2 cells, 10 uM compound, 48 hours treatment, pHrodo-myelin final 20 hours
[7] = HMC3, compound 10 uM, pHrodo-myelin
[8] = BV2, compound 10 uM, pHrodo-myelin

O=c1[nH]c(=O)n([C@H]2C[C@H](O)[C@@H](CO)O2)cc1/C=C/Br [UNC10100235A]
4. Phagocytosis (% control) [1, 5]: 83.2 % control
4. Phagocytosis (% control) [2, 6]: 118.4 % control
1. Cell count (% control) ([3]; HMC3 cells, 10 uM compound): 104.1 % control
2. Nuclear Area (% Control) ([3]; HMC3 cells, 10 uM compound): 100.7 % Control
3. Nuclear DNA Intensity (% control) ([3]; HMC3 cells, 10 uM compound): 100.8 % control
1. Cell count (% control) ([4]; BV2 cells, 10 uM compound): 94.9 % control
2. Nuclear Area (% Control) ([4]; BV2 cells, 10 uM compound): 117.1 % Control
3. Nuclear DNA Intensity (% control) ([4]; BV2 cells, 10 uM compound): 94.6 % control

COc1cc(N2CCC(N3CCN(C)CC3)CC2)ccc1Nc1ncc(Cl)c(Nc2ccccc2P(C)(C)=O)n1 [UNC10244797A]
4. Phagocytosis (% control) [1, 7]: 99.4 % control
4. Phagocytosis (% control) [2, 8]: 236.8 % control
1. Cell count (% control) ([3]; HMC3, compound 10 uM): 103.9 % control
2. Nuclear Area (% Control) ([3]; HMC3, compound 10 uM): 120.2 % Control
3. Nuclear DNA Intensity (% control) ([3]; HMC3, compound 10 uM): 97.2 % control
1. Cell count (% control) ([4]; BV2, compound 10 uM): 44.4 % control
2. Nuclear Area (% Control) ([4]; BV2, compound 10 uM): 109.2 % Control
3. Nuclear DNA Intensity (% control) ([4]; BV2, compound 10 uM): 111.1 % control

CC1(COc2ccc3c(c2)ncn3-c2ccc3cccc(N4CCC(N)CC4)c3n2)COC1 [UNC10223898A]
4. Phagocytosis (% control) [1, 7]: 0.347 % control
4. Phagocytosis (% control) [2, 8]: 0.00125 % control
1. Cell count (% control) ([3]; HMC3, compound 10 uM): 60.3 % control
2. Nuclear Area (% Control) ([3]; HMC3, compound 10 uM): 56.9 % Control
3. Nuclear DNA Intensity (% control) ([3]; HMC3, compound 10 uM): 188.8 % control
1. Cell count (% control) ([4]; BV2, compound 10 uM): 26.6 % control
2. Nuclear Area (% Control) ([4]; BV2, compound 10 uM): 103.7 % Control
3. Nuclear DNA Intensity (% control) ([4]; BV2, compound 10 uM): 28.1 % control

Cl.O=C(O)Cc1cccc(OCCCN(Cc2cccc(C(F)(F)F)c2Cl)CC(c2ccccc2)c2ccccc2)c1 [UNC10302974A]
4. Phagocytosis (% control) [1, 5]: 78.3 % control
4. Phagocytosis (% control) [2, 6]: 136.8 % control
1. Cell count (% control) ([3]; HMC3 cells, 10 uM compound): 138.8 % control
2. Nuclear Area (% Control) ([3]; HMC3 cells, 10 uM compound): 100.4 % Control
3. Nuclear DNA Intensity (% control) ([3]; HMC3 cells, 10 uM compound): 95.2 % control
1. Cell count (% control) ([4]; BV2 cells, 10 uM compound): 123.1 % control
2. Nuclear Area (% Control) ([4]; BV2 cells, 10 uM compound): 107.6 % Control
3. Nuclear DNA Intensity (% control) ([4]; BV2 cells, 10 uM compound): 102.2 % control

CCc1cc2c(cc1N1CCC(N3CCOCC3)CC1)C(C)(C)c1[nH]c3cc(C#N)ccc3c1C2=O [UNC10245077A]
4. Phagocytosis (% control) [1, 7]: 22.4 % control
4. Phagocytosis (% control) [2, 8]: 169.6 % control
1. Cell count (% control) ([3]; HMC3, compound 10 uM): 0.0 % control
2. Nuclear Area (% Control) ([3]; HMC3, compound 10 uM): 0.0 % Control
3. Nuclear DNA Intensity (% control) ([3]; HMC3, compound 10 uM): 0.0 % control
1. Cell count (% control) ([4]; BV2, compound 10 uM): 128.2 % control
2. Nuclear Area (% Control) ([4]; BV2, compound 10 uM): 94.3 % Control
3. Nuclear DNA Intensity (% control) ([4]; BV2, compound 10 uM): 130.0 % control

C[C@H](CCCC(C)(C)O)[C@H]1CC[C@H]2[C@@H]3CC=C4C[C@@H](O)CC[C@]4(C)[C@H]3CC[C@]12C [UNC10302834A]
4. Phagocytosis (% control) [1, 7]: 45.5 % control
4. Phagocytosis (% control) [2, 8]: 50.2 % control
1. Cell count (% control) ([3]; HMC3, compound 10 uM): 99.4 % control
2. Nuclear Area (% Control) ([3]; HMC3, compound 10 uM): 81.6 % Control
3. Nuclear DNA Intensity (% control) ([3]; HMC3, compound 10 uM): 144.3 % control
1. Cell count (% control) ([4]; BV2, compound 10 uM): 75.6 % control
2. Nuclear Area (% Control) ([4]; BV2, compound 10 uM): 103.0 % Control
3. Nuclear DNA Intensity (% control) ([4]; BV2, compound 10 uM): 136.7 % control

c1ccc(-c2nn3c(c2-c2ccnc4cc(OCCN5CCOCC5)ccc24)CCC3)nc1 [UNC10302849A]
4. Phagocytosis (% control) [1, 5]: 64.5 % control
4. Phagocytosis (% control) [2, 6]: 134.3 % control
1. Cell count (% control) ([3]; HMC3 cells, 10 uM compound): 117.4 % control
2. Nuclear Area (% Control) ([3]; HMC3 cells, 10 uM compound): 115.4 % Control
3. Nuclear DNA Intensity (% control) ([3]; HMC3 cells, 10 uM compound): 85.1 % control
1. Cell count (% control) ([4]; BV2 cells, 10 uM compound): 150.2 % control
2. Nuclear Area (% Control) ([4]; BV2 cells, 10 uM compound): 109.6 % Control
3. Nuclear DNA Intensity (% control) ([4]; BV2 cells, 10 uM compound): 98.8 % control

Cc1cc(O)cc2c1[C@]1(C)CC[C@H]3C(C)(C)CCC[C@]3(C)[C@H]1C2 [AQX-MN100]
Stimulation of mouse microglial phagocytosis at 10 μM (>150% control) ([2]; 10 μM, BV2): Y (The compound was found to stimulate phagocytosis (response threshold: >150% control) when murine immortalized microglial cells were dosed at 10 μM (Y: yes))

CCn1cc(C(=O)O)c(=O)c2c(N)c(F)c(NC3CCCCC3)cc21 [UNC10302843A]
4. Phagocytosis (% control) [1, 7]: 67.4 % control
4. Phagocytosis (% control) [2, 8]: 121.2 % control
1. Cell count (% control) ([3]; HMC3, compound 10 uM): 0.0 % control
2. Nuclear Area (% Control) ([3]; HMC3, compound 10 uM): 0.0 % Control
3. Nuclear DNA Intensity (% control) ([3]; HMC3, compound 10 uM): 0.0 % control
1. Cell count (% control) ([4]; BV2, compound 10 uM): 99.6 % control
2. Nuclear Area (% Control) ([4]; BV2, compound 10 uM): 97.0 % Control
3. Nuclear DNA Intensity (% control) ([4]; BV2, compound 10 uM): 118.4 % control

CC(=O)O.Cc1c(-c2ccc(O)cc2)n(Cc2ccc(OCCN3CCCCCC3)cc2)c2ccc(O)cc12 [UNC10245115A]
4. Phagocytosis (% control) [1, 5]: 0.00872 % control
4. Phagocytosis (% control) [2, 6]: 0.00966 % control

O=c1ccc2c(OCCCCOc3ccccc3)c3ccoc3cc2o1 [PAP-1 (5-(4-Phenoxybutoxy)psoralen)]
Stimulation of mouse microglial phagocytosis at 10 μM (>150% control) ([2]; 10 μM, BV2): Y (The compound was found to stimulate phagocytosis (response threshold: >150% control) when murine immortalized microglial cells were dosed at 10 μM (Y: yes))

O=C(NC12C[C@H]3C[C@@H](C1)C[C@@H](C2)C3)N[C@H]1CC[C@H](Oc2ccc(C(=O)O)cc2)CC1 [UNC10303108A]
4. Phagocytosis (% control) [1, 5]: 109.9 % control
4. Phagocytosis (% control) [2, 6]: 153.6 % control

O=C(NC12C[C@H]3C[C@@H](C1)C[C@@H](C2)C3)N[C@H]1CC[C@H](Oc2ccc(C(=O)O)cc2)CC1 [t-AUCB]
Stimulation of mouse microglial phagocytosis at 10 μM (>150% control) ([2]; BV2, 10 μM): Y (The compound was found to stimulate phagocytosis (response threshold: >150% control) when murine immortalized microglial cells were dosed at 10 μM (Y: yes))

CC/C(=C(\c1ccccc1)c1ccc(OCCN(C)C)cc1)c1ccccc1 [Tamoxifen]
Stimulation of mouse microglial phagocytosis at 10 μM (>150% control) ([2]; BV2, 10 μM): Y (The compound was found to stimulate phagocytosis (response threshold: >150% control) when murine immortalized microglial cells were dosed at 10 μM (Y: yes))

CC(C)CCOc1ccc(N)cc1 [UNC10302876A]
4. Phagocytosis (% control) [1, 5]: 89.8 % control
4. Phagocytosis (% control) [2, 6]: 110.6 % control

O=c1ccc2c(OCCCCc3ccccc3)c3ccoc3cc2o1 [Psora-4 (5-(4-Phenylbutoxy)psoralen)]
Inhibition of human microglial phagocytosis at 10 μM (<70% control) ([1]; 10 μM, HMC3): Y (The compound was found to inhibit phagocytosis (response threshold: <70% control) when human immortalized microglial cells were dosed at 10 μM (Y: yes))
Stimulation of mouse microglial phagocytosis at 10 μM (>150% control) ([2]; 10 μM, BV2): Y (The compound was found to stimulate phagocytosis (response threshold: >150% control) when murine immortalized microglial cells were dosed at 10 μM (Y: yes))

COc1ccc(/C=C/C(=O)c2ccc(OC)cc2OC)cc1 [Metochalcone]
Stimulation of mouse microglial phagocytosis at 10 μM (>150% control) ([2]; BV2, 10 μM): Y (The compound was found to stimulate phagocytosis (response threshold: >150% control) when murine immortalized microglial cells were dosed at 10 μM (Y: yes))
Human microglial cytotoxicity at 10 μM (<70% control) ([3]; HMC3, 10 μM, cell count <70% control): Y (The compound was found to be cytotoxic (cell count threshold: <70% control) when human immortalized microglial cells were dosed at 10 μM (Y: yes))

From paper PMC9019904, “AD Informer Set: Chemical tools to facilitate Alzheimer's disease drug discovery” (Alzheimer's & Dementia : Translational Research & Clinical …, 2022)
